Measurements reported in patent publication US20140341922A1, “Method for Overcoming Tolerance to Targeted Anti-Cancer Agent” (SUN R&DB Foundation, priority 2011, published 2014).

Key:
[1] = tested on: 13 HNSCC and 6 NSCLC cells; test: MTT cell viability in conventional 2D culture (TCPs); type: cell-based, human; conditions: 25 μg/ml, up to 7 days, MTT assay
Method: A panel of 13 HNSCC and 6 NSCLC cells grown in 2D culture conditions using TCPs were treated with 25 μg/ml cixutumumab, and the effect of cixutumumab on growth of cancer cells tested was analyzed by the MTT assay.
The effect of cixutumumab on growth of 13 HNSCC and 6 NSCLC cells was evaluated by the MTT assay, and the results are shown in FIG. 2.
LN686, UMSCC38, and A549m cells were treated with cixutumumab diluted in 1% FBS-containing medium for 3 and 5 days. Cell viability was evaluated by the MTT assay.

[2] = tested on: LN686 tumor xenografts; test: LN686 xenograft, cixutumumab and Ad-CSK; type: in vivo, mouse; conditions: after 21 days
Method: LN686, UMSCC38, H226B, or A549m cells (1×10^6 cells/mouse in 100 μl of PBS) were subcutaneously injected into nude mice at a single dorsal flank site (6-9 mice per group). For HNSCC patient-derived tumor xenografts, primary human tumor specimens were collected from an untreated patient who underwent lobectomies of squamous carcinoma of the oral cavity. The tumors were cut into small pieces with a size of 2-mm^3 and subcutaneously implanted into the nude mice (one piece per mouse). At 0 day (the time point when tumor size reached to 80 to 100 mm^3) mice were treated with cixutumumab (10 mg/kg, i.p., once or twice a week), Ad-EV (3×10^11 pfu, intratumoral injection, once a week), Ad-CSK (3×10^11 pfu, intratumoral injection, once a week), siCon, siintegrin β3 ([…], i.p., once a week), dasatinib (20 mg/kg, oral gavage, daily), cixutumumab and Ad-CSK, or cixutumumab and dasatinib.
To further determine the effects of inhibiting integrin β3/Src signaling on antitumor activities of cixutumumab, an adenovirus expressing c-Src tyrosine kinase that phosphorylates the autoinhibitory tyrosine 527 was used (Yeatman, 2004). […]

cixutumumab: humanized mAb targeting IGF-1R, provided by ImClone Systems
viability of cells grown in 2D culture conditions [1]: did not inhibit
mean tumor weight compared to a control group [2]: 96%
